Patent US8158661B2, “GSK-3 inhibitors” (Noscira, S.A., priority 2004, dated 2012)

How the values were obtained:
[1] = molecular target: T1, Bovine serum albumin (Fraction V) (Bos taurus, UniProt P02769); assay: Binding to BSA (incubation, HPLC-UV/MS); type: in vitro ADME; details: compound and BSA 1 mM each, 30 minutes at room temperature
T1 construct: Bovine serum albumin (Fraction V) (Sigma); purchased Sigma
Experimental: The compounds (working solution at 1 mM) were incubated during 30 minutes at room temperature with Glutathione (Sigma) and Bovine serum albumin (Fraction V) (Sigma) at equimolecular concentrations (1 mM). After this time the solution was filtrated and analysed by HPLC-UV/MS.
HPLC was performed with a symmetry C18 (2.1×150 mm, 3.5 μm) column using a Waters Alliance 2695 with a 2996 photodiode array and ZQ2000 mass spectrometer used for the analytical separation and for UV and mass determination. The gradient used for the elution was: […]
Flux: 0.25 mL/min; temp: 30° C.; Detection: 250 nm; Injection Volume: 10 μL

[2] = molecular target: Recombinant human glycogen synthase kinase 3β (Homo sapiens, UniProt P49841); assay: GSK-3β inhibition; type: biochemical; details: recombinant human GSK-3β, GS-2 62.5 μM, ATP 12.5 μM, 30 min at 30° C.
Experimental: The GSK-3β activity was determined by incubation of a mixture of recombinant human GSK-3 enzyme, a phosphate source and GSK-3 substrate in the presence and in the absence of the corresponding test compound, and by measuring the GSK-3 activity of this mixture.
The final assay volume was 20 μl. After incubation for 30 minutes at 30° C., 15 μl aliquots were spotted onto P81 phosphocellulose papers. Filters were washed four times for at least 10 minutes each and counted with 1.5 ml of scintillation cocktail in a scintillation counter.

[3] = Brain permeation and pharmacokinetics after oral and intravenous administration; type: in vivo, C57/BL6 mice; details: mice
Experimental: C57/BL6 mice (15-30 g) from Charles River laboratories Spain were used in this study. […] Water was available ad libitum. Animals were fasted for 4 hours before treatment, but with water ad libitum. They were fed 2 hours after administration.
The route of administration was a single oral administration at […] (10 mL/kg) and single intravenous administration at 2 mg/kg (10 mL/kg). An additional experiment was performed at 200 mg/kg by the oral route only to determine proportionality of absorption.
Blood was heparinized, and after centrifugation (3000 rpm, 10 mins, 5° C.), two plasma aliquots stored at −20° C. and −30° C. until analysis (HPLC/MS-MS).

T1 sequence (P02769 25-607): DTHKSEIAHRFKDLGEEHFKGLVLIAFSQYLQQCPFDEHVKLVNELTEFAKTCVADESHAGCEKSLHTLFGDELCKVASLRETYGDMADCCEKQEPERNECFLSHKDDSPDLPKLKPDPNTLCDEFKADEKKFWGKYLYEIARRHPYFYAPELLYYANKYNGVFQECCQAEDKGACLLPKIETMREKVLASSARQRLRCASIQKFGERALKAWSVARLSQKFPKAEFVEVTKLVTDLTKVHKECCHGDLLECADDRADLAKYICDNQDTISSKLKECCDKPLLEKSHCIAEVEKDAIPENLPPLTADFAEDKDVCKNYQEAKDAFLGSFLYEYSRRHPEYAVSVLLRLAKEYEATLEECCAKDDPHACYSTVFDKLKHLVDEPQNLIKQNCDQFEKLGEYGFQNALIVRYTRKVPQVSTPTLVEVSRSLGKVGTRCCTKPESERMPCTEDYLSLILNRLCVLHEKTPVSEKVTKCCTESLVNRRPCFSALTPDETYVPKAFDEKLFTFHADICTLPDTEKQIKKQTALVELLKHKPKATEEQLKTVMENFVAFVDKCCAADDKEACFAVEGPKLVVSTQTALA
Chain of Recombinant human glycogen synthase kinase 3β (P49841 whole entry): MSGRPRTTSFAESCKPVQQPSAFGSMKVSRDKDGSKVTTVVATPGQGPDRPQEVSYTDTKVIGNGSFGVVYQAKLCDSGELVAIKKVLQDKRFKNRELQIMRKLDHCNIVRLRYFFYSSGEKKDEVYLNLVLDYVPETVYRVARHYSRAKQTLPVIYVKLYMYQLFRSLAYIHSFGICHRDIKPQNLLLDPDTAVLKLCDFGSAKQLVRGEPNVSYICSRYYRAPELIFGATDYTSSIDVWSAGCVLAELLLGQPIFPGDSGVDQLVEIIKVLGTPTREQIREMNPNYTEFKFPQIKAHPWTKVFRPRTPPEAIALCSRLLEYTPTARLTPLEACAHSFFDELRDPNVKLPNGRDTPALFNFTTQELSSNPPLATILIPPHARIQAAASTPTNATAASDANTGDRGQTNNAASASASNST

| SMILES | % unbinding compound, albumin [1] [%] | IC50 [2] [µM] | melting point [°C] | also measured |
| --- | --- | --- | --- | --- |
| O=c1sn(Cc2ccccc2)c(=O)n1Cc1ccccc1 [2,4-dibenzyl-1,2,4-thiadiazolidine-3,5-dione, reference compound] | 57.0 |  |  |  |
| O=c1sn(CCc2ccccc2)c(=O)n1Cc1ccccc1 [Compound 1, 2-Phenethyl-4-benzyl-(1,2,4)thiadiazolidine-3,5-dione] | 80.2 | 3 |  |  |
| O=c1sn(-c2cccc3ccccc23)c(=O)n1Cc1ccccc1 [Compound 2, 4-Benzyl-2-naphthalen-1-yl-[1,2,4]thiadiazolidine-3,5-dione] | 98.0 |  |  | bioavailability ([3]; both sexes, C57/BL6, mouse, plasma, oral 20 mg/kg vs intravenous 2 mg/kg): 31.9%; half-life ([3]; both sexes, C57/BL6, mouse, plasma, oral administration of 20 mg/kg): 6 h; Cmax ([3]; both sexes, C57/BL6, mouse, single oral dose 20 mg/kg, plasma): 905 ng/mL; Cmax ([3]; both sexes, C57/BL6, mouse, single oral dose 200 mg/kg, plasma): 9060 ng/mL; Absorption from the GI tract ([3]; after oral administration): quickly absorbed; Levels in the brain ([3]; both after oral and intravenous administration): detected in the brain |
| O=c1sn(C23CC4CC(CC(C4)C2)C3)c(=O)n1Cc1ccccc1 [Compound 3, 2-(1-adamantyl)-4-benzyl-[1,2,4]thiadiazolidine-3,5-dione] | 54.0 | > 50 | 128.8 |  |
| Cc1ccc(Cn2sc(=O)n(Cc3ccccc3)c2=O)cc1 [Compound 4, 4-Benzyl-2-(4-methyl-benzyl)-[1,2,4]thiadiazolidine-3,5-dione] | 67.2 | 1.8 |  |  |
| O=c1sn(-c2ccc3c(c2)OCO3)c(=O)n1Cc1ccccc1 [Compound 5, 4-Benzyl 2-((3,4-methylenedioxy)phenyl)-[1,2,4]thiadiazolidine-3,5-dione] | 65.5 | 4.2 |  |  |

Continued, in another order:

| % unbinding compound, albumin [1] [%] | IC50 [2] [µM] | melting point [°C] | SMILES | also measured |
| --- | --- | --- | --- | --- |
| 84.0 | 2 | 111.5 | O=c1sn(C(c2ccccc2)c2ccccc2)c(=O)n1Cc1ccccc1 [Compound 6, 4-Benzyl-2-diphenylmethyl-1,2,4-thiadiazolidine-3,5-dione] |  |
| 68.3 | < 50 |  | COc1ccc(Cn2sc(=O)n(Cc3ccccc3)c2=O)cc1 [Compound 7, 4-Benzyl-2-(4-methoxybenzyl)-[1,2,4]thiadiazolidine-3,5-dione] |  |
| 62.3 | 3 | 89.8 | Cc1cccc(C(C)(C)C)c1-n1sc(=O)n(Cc2ccccc2)c1=O [Compound 8, 4-Benzyl-2-(2-tert-butyl-6-methyl-phenyl)-(1,2,4)thiadiazolidine-3,5-dione] |  |
| 91.4 | 8 | 154.9 | O=c1sn(-c2ccccc2Cc2ccccc2)c(=O)n1Cc1ccccc1 [Compound 9, 4-Benzyl-2-(2-benzyl-phenyl)-[1,2,4]thiadiazolidine-3,5-dione] |  |
| 98.9 | 3 | 88.8 | O=c1sn(-c2ccc(Oc3ccccc3)cc2)c(=O)n1Cc1ccccc1 [Compound 10, 4-Benzyl-2-(4-phenoxyphenyl)-[1,2,4]thiadiazolidine-3,5-dione] |  |
